Legend:
[1] = biological target: disulfide stabilized HIV-1NL4-3 CA hexamer (Human immunodeficiency virus type 1 group M subtype B, UniProt P12493, A146C/E177C/M317A/W316A); test: SPR direct interaction analysis with immobilized CA hexamer; assay type: binding; settings: for kd: SPR, 25 °C, 1:1 binding model
[2] = Metabolic stability in human liver microsomes; settings: half-life relative to S-PF-74
[3] = enantiomerically pure compounds

| SMILES | binding to CA hexamer via SPR (in words) [1, 3] | kd [1, 3] | further results |
| --- | --- | --- | --- |
| Cc1[nH]c2ccccc2c1CC(=O)NC(Cc1ccccc1)C(=O)N(C)c1ccc2[nH]ncc2c1 (centres unmarked) [CX16, N-(1H-indazol-5-yl)-N-methyl-2-(2-(2-methyl-1H-indol-3-yl)acetamido)-3-phenylpropanamide] |  |  | kd ([1]; racemic compounds): 1.21 ± 0.037 × 10^−2 s^−1 |
| CN(C(=O)C(Cc1ccccc1)NC(=O)Cc1n[nH]c2c(N)cccc12)c1ccc2[nH]ncc2c1 (centres unmarked) [CX17, 2-(2-(7-amino-1H-indazol-3-yl)acetamido)-N-(1H-indazol-5-yl)-N-methyl-3-phenylpropanamide] |  |  | IC50 relative to predicted and experimentally determined affinity (HIV-1 pseudoviruses; racemic compound, IC50 higher than affinity): approximately 5 fold |
| Cc1[nH]c2ccccc2c1CC(=O)NC(Cc1ccccc1)C(=O)N(C)c1ccccc1 (centres unmarked) [PF-74, reference compound] |  |  | kd ([1]; racemic compounds): 2.93 ± 0.182 × 10^−2 s^−1 |
| CN(C(=O)[C@@H](Cc1ccccc1)NC(=O)Cc1c[nH]c2c(N)cccc12)c1ccccc1 [R-CX15, (R)-2-(2-(7-Amino-1H-indol-3-yl)acetamido)-N-methyl-N,3-diphenylpropanamide] | little to no binding interactions |  |  |
| Cc1[nH]c2ccccc2c1CC(=O)N[C@H](Cc1ccccc1)C(=O)N(C)c1ccc2[nH]ncc2c1 [R-CX16, (R)-N-(1H-Indazol-5-yl)-N-methyl-2-(2-(2-methyl-1H-indol-3-yl)acetamido)-3-phenylpropanamide] | little to no binding interactions |  |  |
| CN(C(=O)[C@@H](Cc1ccccc1)NC(=O)Cc1n[nH]c2c(N)cccc12)c1ccc2[nH]ncc2c1 [R-CX17, (R)-2-(2-(7-amino-1H-indazol-3-yl)acetamido)-N-(1H-indazol-5-yl)-N-methyl-3-phenylpropanamide] | little to no binding interactions |  |  |
| Cc1[nH]c2ccccc2c1CC(=O)N[C@H](Cc1ccccc1)C(=O)N(C)c1ccccc1 [R-PF-74, (R)-N-methyl-2-(2-(2-methyl-1H-indol-3-yl)acetamido)-N,3-diphenylpropanamide, reference compound] | little to no binding interactions |  |  |
| CN(C(=O)[C@H](Cc1ccccc1)NC(=O)Cc1c[nH]c2c(N)cccc12)c1ccccc1 [S-CX15, (S)-2-(2-(7-Amino-1H-indol-3-yl)acetamido)-N-methyl-N,3-diphenylpropanamide] | robust binding | 6.60 ± 0.328 × 10^−2 s^−1 | Fold Increase (over S-PF-74) [2]: 30.8 fold |
| Cc1[nH]c2ccccc2c1CC(=O)N[C@@H](Cc1ccccc1)C(=O)N(C)c1ccc2[nH]ncc2c1 [S-CX16, (S)-N-(1H-Indazol-5-yl)-N-methyl-2-(2-(2-methyl-1H-indol-3-yl)acetamido)-3-phenylpropanamide] | robust binding | 1.09 ± 0.043 × 10^−2 s^−1 | improvement in affinity over S-PF-74 [1, 3]: > 2 fold; Fold Increase (over S-PF-74) [2]: 2.0 fold |
| CN(C(=O)[C@H](Cc1ccccc1)NC(=O)Cc1n[nH]c2c(N)cccc12)c1ccc2[nH]ncc2c1 [S-CX17, (S)-2-(2-(7-amino-1H-indazol-3-yl)acetamido)-N-(1H-indazol-5-yl)-N-methyl-3-phenylpropanamide] | robust binding | 9.66 ± 0.145 × 10^−2 s^−1 | change of antiviral potency relative to parental compound (HIV-1 pseudoviruses; slightly diminished potency): ~3.5 fold; Fold Increase (over S-PF-74) [2]: 204 fold |
| Cc1[nH]c2ccccc2c1CC(=O)N[C@@H](Cc1ccccc1)C(=O)N(C)c1ccccc1 [S-PF-74, (S)-N-methyl-2-(2-(2-methyl-1H-indol-3-yl)acetamido)-N,3-diphenylpropanamide, reference compound] | robust binding | 2.92 ± 0.111 × 10^−2 s^−1 |  |

Source: PMC8043142 (Journal of medicinal chemistry, 2021)
